Assay [1] concerns the target T1, GST-JAK2(808-1132) (Homo sapiens, UniProt O60674).
T1 construct: GST-JAK2(808-1132); purchased Invitrogen (Carlsbad, USA) #4288
The experiment in a line: JAK2 kinase assay (Caliper mobility shift, LabChip 3000). The class given is biochemical. In short, it runs like this:
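Eight-point compound series (final 10–0.003 μM) tested on purchased GST-JAK2 kinase domain (808-1132). Peptide FITC-JAK3tide plus ATP reacted 60 min, 30 °C, then quenched with EDTA; turnover from charge-based separation of substrate and product.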

Assay [2] deals with JAK2-dependent nuclear translocation of STAT5-GFP in U-2 OS osteosarcoma cells. The assay can be described thus: STAT5 nuclear translocation assay (Cellomics), rhEpo stimulated U-2 OS STAT5-GFP cells. The class given is cell-based. The following applies: STAT5 translocation pathway. In short, it runs like this:
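U-2 OS cells stably expressing STAT5a-GFP and EpoR pre-treated with compound (final 10 μM to 0.003 μM, 0.1% DMSO) for 30 min at 37° C., then stimulated 1 h with 5 U/ml rhEpo. Nuclear-cytoplasmic GFP differential quantified by automated imaging (≥1000 cells/well, Hoechst nuclear mask). IC50 from % translocation normalized to untreated and DMSO-stimulated controls.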

T1 sequence (O60674 808-1132): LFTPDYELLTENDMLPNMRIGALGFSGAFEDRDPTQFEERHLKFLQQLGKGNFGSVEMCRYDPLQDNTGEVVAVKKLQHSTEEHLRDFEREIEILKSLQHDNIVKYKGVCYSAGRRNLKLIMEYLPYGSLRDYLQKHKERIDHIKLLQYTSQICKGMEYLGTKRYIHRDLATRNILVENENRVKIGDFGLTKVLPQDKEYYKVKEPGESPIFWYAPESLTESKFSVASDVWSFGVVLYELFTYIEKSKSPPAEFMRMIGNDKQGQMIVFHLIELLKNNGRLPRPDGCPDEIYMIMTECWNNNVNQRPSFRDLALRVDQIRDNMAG

For orientation: IC50 means the concentration needed to halve the response being measured. In the case of `Fc1cc(-n2ccc3cnc(Nc4ccc(N5CCNC(C(F)(F)F)C5)nc4)nc32)cc(F)c1CN1CCOCC1` (racemic) [Example 469, [7-(3,5-Difluoro-4-morpholin-4-ylmethyl-phenyl)-7H-pyrrolo[2,3-d]pyrimidin-2-yl]-[6-(3-trifluoromethyl-piperazin-1-yl)-pyridin-3-yl]-amine], the concentration for half-maximal inhibition (IC50) was not above 3 nM in assay [1] and 25 nM in assay [2] (Homo sapiens, U2OS).

In the case of `C[C@@H]1CN(c2ccc(Nc3ncc4ccn(-c5ccc(C(=O)N6CCOCC6)c(F)c5)c4n3)cn2)C[C@H](C)N1` [Example 499, (4-{2-[6-(cis-3,5-Dimethyl-piperazin-1-yl)-pyridin-3-ylamino]-pyrrolo[2,3-d]pyrimidin-7-yl}-2-fluoro-phenyl)-morpholin-4-yl-methanone], the 50% inhibitory concentration (IC50) in assay [1] was 4.8 nM; in assay [2] (Homo sapiens, U2OS) it was 220 nM.

As for `Fc1cc(-n2ccc3cnc(Nc4ccnc(CN5CCNC(C(F)(F)F)C5)c4)nc32)cc(F)c1CN1CCOCC1` (racemic) [Example 408, [7-(3,5-Difluoro-4-morpholin-4-ylmethyl-phenyl)-7H-pyrrolo[2,3-d]pyrimidin-2-yl]-[2-(3-trifluoromethyl-piperazin-1-ylmethyl)-pyridin-4-yl]-amine], the IC50 in assay [1] is not above 3 nM; in assay [2] (Homo sapiens, U2OS) it was 9.2 nM.

For the compound `Cc1ccc(Nc2ncc3ccn(-c4cc(F)c(CN5CCOCC5)c(F)c4)c3n2)cc1Cn1cc(CO)nn1` [Example 419, (1-{5-[7-(3,5-Difluoro-4-morpholin-4-ylmethyl-phenyl)-7H-pyrrolo[2,3-d]pyrimidin-2-ylamino]-2-methyl-benzyl}-1H-[1 2,3]triazol-4-yl)-methanol], the IC50 is 4.3 nM in assay [1] and 38.5 nM in assay [2] (Homo sapiens, U2OS).

Turning to `OCCOc1ccc(Nc2ncc3ccn(-c4cc(F)c(CN5CCOCC5)c(F)c4)c3n2)cn1` [Example 518, 2-{5-[7-(3,5-Difluoro-4-morpholin-4-ylmethyl-phenyl)-7H-pyrrolo[2,3-d]pyrimidin-2-ylamino]-pyridin-2-yloxy}-ethanol], the 50% inhibitory concentration (IC50) is not above 3 nM in assay [1] and 39.5 nM in assay [2] (Homo sapiens, U2OS).

For `Cc1ccc(Nc2ncc3ccn(-c4cc(F)c(CN5CCOCC5)c(F)c4)c3n2)cc1CN1CCOC2(COC2)C1` [Example 358, [7-(3,5-Difluoro-4-morpholin-4-ylmethyl-phenyl)-7H-pyrrolo[2,3-d]pyrimidin-2-yl]-[3-(2,5-dioxa-8-aza-spiro[3,5]non-8-ylmethyl)-4-methyl-phenyl]-amine], the IC50 was found to be 7.2 nM in assay [1] and 59 nM in assay [2] (Homo sapiens, U2OS).

Consider `Fc1cc(-n2ccc3cnc(Nc4ccc(CN5CCC(F)(F)C5)cc4)nc32)cc(F)c1CN1CCOCC1` [Example 471, [7-(3,5-Difluoro-4-morpholin-4-ylmethyl-phenyl)-7H-pyrrolo[2,3-d]pyrimidin-2-yl]-[4-(3,3-difluoro-pyrrolidin-1-ylmethyl)-phenyl]-amine], for which the 50% inhibitory concentration (IC50) stood at 3.5 nM in assay [1] and 31.5 nM in assay [2] (Homo sapiens, U2OS).

With `CC(C)(C)NS(=O)(=O)c1ccc(-n2ccc3cnc(Nc4ccc(OCCN5CCCC5)cc4)nc32)cc1` [Example 363, N-tert-Butyl-4-{2-[4-(2-pyrrolidin-1-yl-ethoxy)-phenylamino]-pyrrolo[2,3-d]pyrimidin-7-yl}-benzenesulfonamide], the IC50 was 3.2 nM in assay [1] and 11 nM in assay [2] (Homo sapiens, U2OS).

As to `COC1CCN(Cc2cc(Nc3ncc4ccn(-c5cc(F)c(CN6CCOCC6)c(F)c5)c4n3)ccn2)C1` (racemic) [Example 426, [7-(3,5-Difluoro-4-morpholin-4-ylmethyl-phenyl)-7H-pyrrolo[2,3-d]pyrimidin-2-yl]-[2-(3-methoxy-pyrrolidin-1-ylmethyl)-pyridin-4-yl]-amine], the half-maximal inhibitory concentration (IC50) was not above 3 nM in assay [1] and 18.3 nM in assay [2] (Homo sapiens, U2OS).

`Cc1ccc(Nc2ncc3ccn(-c4cc(F)c(CN5CCOCC5)c(F)c4)c3n2)cc1C(=O)N1C[C@@H](C)N[C@@H](C)C1` [Example 452, {5-[7-(3,5-Difluoro-4-morpholin-4-ylmethyl-phenyl)-7H-pyrrolo[2,3-d]pyrimidin-2-ylamino]-2-methyl-phenyl}-(cis-3,5-dimethyl-piperazin-1-yl)-methanone]: the IC50 in assay [1] amounted to 6.2 nM; in assay [2] (Homo sapiens, U2OS), 79.5 nM.

For the compound `C[C@@H]1CN(c2ncc(Nc3ncc4ccn(-c5cc(F)c(CN6CCOCC6)c(F)c5)c4n3)cc2C(F)(F)F)C[C@H](C)N1` [Example 496, [7-(3,5-Difluoro-4-morpholin-4-ylmethyl-phenyl)-7H-pyrrolo[2,3-d]pyrimidin-2-yl]-[6-(cis-3,5-dimethyl-piperazin-1-yl)-5-trifluoromethyl-pyridin-3-yl]-amine], the half-inhibitory concentration (IC50) in assay [1] is not above 3 nM; in assay [2] (Homo sapiens, U2OS) it was 97.2 nM.

Consider “[6-Azetidin-3-yloxy)-pyridin-3-yl]-[7-(3,5-difluoro-4-morpholin-4-ylmethyl-phenyl)-7H-pyrrolo[2,3-d]pyrimidin-2-yl]-amine [Example 514]”, for which the half-inhibitory concentration (IC50) in assay [1] is 25 nM; in assay [2], 1320 nM.

With `CN1CCN(c2ccc(Nc3ncc4ccn(-c5cc(F)c(CN6CCOCC6)c(F)c5)c4n3)cn2)C(=O)C1` [Example 478, 1-{5-[7-(3,5-Difluoro-4-morpholin-4-ylmethyl-phenyl)-7H-pyrrolo[2,3-d]pyrimidin-2-ylamino]-pyridin-2-yl}-4-methyl-piperazin-2-one], the IC50 in assay [1] was determined as 5.5 nM; in assay [2] (Homo sapiens, U2OS), 51 nM.

Turning to `CC(C)S(=O)(=O)Nc1ccc(-n2ccc3cnc(Nc4ccc(N5C[C@@H](C)N[C@@H](C)C5)nc4)nc32)cc1` [Example 375, Propane-2-sulfonic acid (4-{2-[6-(cis-3,5-dimethyl-piperazin-1-yl)-pyridin-3-ylamino]-pyrrolo[2,3-d]pyrimidin-7-yl}-phenyl)-amide], the IC50 in assay [1] is 6.5 nM; in assay [2] (Homo sapiens, U2OS) it was 7.7 nM.

Regarding `C[C@@H]1CN(c2ccc(Nc3ncc4ccn(-c5cc(F)c(CN6CCCC6=O)c(F)c5)c4n3)cn2)C[C@H](C)N1` [Example 458, 1-(4-{2-[6-(cis-3,5-Dimethyl-piperazin-1-yl)-pyridin-3-ylamino]-pyrrolo[2,3-d]pyrimidin-7-yl}-2,6-difluoro-benzyl)-pyrrolidin-2-one], the concentration for half-maximal inhibition (IC50) in assay [1] is not above 3 nM; in assay [2] (Homo sapiens, U2OS), 1.4 nM.

With `Cc1ccc(Nc2ncc3ccn(-c4cc(F)c(CN5CCS(=O)(=O)CC5)c(F)c4)c3n2)cc1CN1CCN(C)C(=O)C1` [Example 422, 4-(5-{7-[4-(1,1-Dioxido-thiomorpholin-4-ylmethyl)-3,5-difluoro-phenyl]-7H-pyrrolo[2,3-d]pyrimidin-2-ylamino}-2-methyl-benzyl)-1-methyl-piperazin-2-one], the half-inhibitory concentration (IC50) is not above 3 nM in assay [1] and 5.7 nM in assay [2] (Homo sapiens, U2OS).

As to `Cc1ccc(Nc2ncc3ccn(-c4ccc(C(=O)N5CCS(=O)(=O)CC5)c(F)c4)c3n2)cc1CN1CCNC(C(F)(F)F)C1` (racemic) [Example 403], the IC50 is not above 3 nM in assay [1] and 22.5 nM in assay [2] (Homo sapiens, U2OS).

As to `Cc1ccc(Nc2ncc3ccn(-c4cc(F)c(CN5CCOCC5)c(F)c4)c3n2)cc1CN1CCN(C=O)CC1` [Example 370, 4-{5-[7-(3,5-Difluoro-4-morpholin-4-ylmethyl-phenyl)-7H-pyrrolo[2,3-d]pyrimidin-2-ylamino]-2-methyl-benzyl}-piperazine-1-carbaldehyde], the IC50 was not above 3 nM in assay [1] and 31.3 nM in assay [2] (Homo sapiens, U2OS).

The values above are taken from patent publication US8420657B2 (Novartis AG, priority 2008, dated 2013).
